Test results reported in patent US20100010092A1, “USE OF MODAFINIL TO TREAT RESTLESS LEG SYNDROME” (Arless Ltd., priority 2006, published 2010).
Structures can show the parent of a compound that is named as a salt.

Columns and labels:
[1] = test system: PLMD and RLS and Primary snoring; test: Case reports: patient with sleep study diagnosed PLMD, RLS and Primary snoring taking the drug orally; assay type: in vivo, human; settings: for RLS and PLMD symptoms on chronic use: symptoms returned immediately after stopping
Experimental: An otherwise healthy non-obese person with sleep study diagnosed PLMD and RLS and Primary snoring without apnea, 61 kg, took Requip, ropinirole HCL from 0.25 to 0.75 mg orally per day for PLMS and RLS for a period of over 8-12 months. PLM were severe enough to occasionally awaken them from sleep. […] Multiple attempts at gaining relief were made over a period of 8-12 months. These attempts failed. […]

[2] = test system: restless leg syndrome and PLMS, and Primary snoring; test: Overnight polysomnographic sleep study, evening dosage; assay type: in vivo, human; settings: oral 50 mg in the evening, versus baseline without drug
Text: A non-obese subject with no outstanding medical history other than restless leg syndrome and PLMS of 6 years duration, and Primary snoring, 60 kg, was entered into an overnight sleep study in a specialist hospital sleep disorder center. […] Snoring as represented by the Snore Index was reduced 70%.

[3] = doses up to 400 mg per day, given as a single dose; cited from earlier work
[4] = cited from earlier work; for share of trough concentration (Cminss) of circulating modafinil: after once daily dosing of racemic modafinil
[5] = test system: RLS; settings: moderate to severe RLS; cited from earlier work
[6] = 50 mg by mouth 1-3 hours prior to bedtime
[7] = 50 mg by mouth between 8 am and noon
[8] = 50 mg or 25 mg by mouth in the morning

## NC(=O)C[S+]([O-])C(c1ccccc1)c1ccccc1 (racemic) [modafinil, 2-[(diphenylmethyl)sulfiny]acetamide]
[1]; 25 mg as needed, evening dosage
  symptoms: either completely relieved or greatly diminished
[1]; 25 mg by mouth in the morning
  removal of symptoms at lower dosage: failed to entirely remove symptoms
[1]; [6]
  limb movements and the urge to move the limb and associated sensations while awake: greatly reduced
  time until limb movements and urge were greatly reduced: approximately 90 minutes
[1]; [7]
  leg jerks during sleep observed by partner: no leg jerks during sleep were observed
  limb movements and snoring while asleep noticed by partner: absence of limb movements and snoring
  restfulness noted by patient: increased restfulness
  urge to move legs in the evenings: No urge to move legs in the evenings occurred
[1]; [8]
  limb movements and the urge to move the limb and associated sensations while awake: greatly reduced
  snoring noted by sleep partner: marked decrease in snoring
[1]; 100 mg by mouth in the morning
  leg jerks during sleep observed by partner: no leg jerks during sleep were observed
  limb movements and snoring while asleep noticed by partner: absence of limb movements and snoring
  restfulness noted by patient: increased restfulness
  urge to move legs in the evenings: No urge to move legs in the evenings occurred
[1]; evening dosage, every day for periods of 5 to 7 days
  RLS and PLMD symptoms on chronic use: periods free from RLS and PLMD symptoms
[1]; morning dosage 50 or 25 mg, every day for periods of up to 11 days
  RLS and PLMD symptoms on chronic use: periods free from RLS and PLMD symptoms
[2]
  PLMs during sleep: not detected
  reduction of snoring as represented by the Snore Index: 70%
[3]
  tolerability: well tolerated

## NC(=O)C[S@@+]([O-])C(c1ccccc1)c1ccccc1 [I-isomer, r-2-((diphenylmethyl)sulfinyl)-acetamide]
[4]
  share of trough concentration (Cminss) of circulating modafinil: 90%
[4]; taken orally, steady state
  total exposure at steady state relative to that for the d-isomer: approximately three

## NC(=O)C[S+]([O-])C(c1ccccc1)c1ccccc1 (single isomer, unassigned) [d-isomer]
[4]
  share of trough concentration (Cminss) of circulating modafinil: 10%

## CCCN(CCC)CCc1cccc2c1CC(=O)N2 [Requip, ropinirole HCL]
[1]; ropinirole HCL 0.25 to 0.75 mg orally per day, over 8-12 months
  PLMS according to the partner: PLMS continued
[1]; ropinirole HCL 0.25 to 0.75 mg orally per day, over 8-12 months, person
  relief of RLS/PLMS symptoms: did not relieve symptoms
[5]
  additional complications reported by patients: constipation and daytime sleepiness
